Source: PubChem BioAssay AID248 (DTP/NCI, 2004)
Where “and” joins values, the source holds several entries; their conditions need not be identical. Equal entries are not always repeated. Toxic doses and inconclusive results are not listed. Rule as the data show it: active = T/C of 150% or more; inactive = T/C below 125%.

Test system: L1210 leukemia ip in BDF1 mice, survival T/C
Assay: NCI In Vivo Anticancer Drug Screen. Data for tumor model L1210 Leukemia (intraperitoneal) in B6D2F1 (BDF1) mice
Conditions: endpoint: mean survival time, higher = longer survival
Procedure, shortened: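 Each compound was tested against a transplantable tumor grown in mice. The endpoint was survival, with treated animals benchmarked against vehicle controls as a simple ratio.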

[1] = dose: 100.0 mg/kg/injection, schedule: Q04DX002 (ip), vehicle: saline with Tween-80
[2] = dose: 100.0 mg/kg/injection, schedule: Q04DX003 (ip), vehicle: saline with Tween-80
[3] = dose: 200.0 mg/kg/injection, schedule: Q04DX003 (ip), vehicle: saline with Tween-80
[4] = dose: 400.0 mg/kg/injection, schedule: Q04DX003 (ip), vehicle: saline with Tween-80
[5] = dose: 100.0 mg/kg/injection, schedule: Q01DX009 (ip), vehicle: saline with Tween-80
[6] = dose: 200.0 mg/kg/injection, schedule: Q01DX009 (ip), vehicle: saline with Tween-80
[7] = dose: 40.0 mg/kg/injection, schedule: Q01DX009 (ip), vehicle: saline with Tween-80
[8] = dose: 75.0 mg/kg/injection, schedule: Q04DX003 (ip), vehicle: saline
[9] = dose: 100.0 mg/kg/injection, schedule: Q01DX001 (ip), vehicle: saline with Tween-80
[10] = dose: 200.0 mg/kg/injection, schedule: Q01DX001 (ip), vehicle: saline with Tween-80
[11] = dose: 200.0 mg/kg/injection, schedule: Q04DX002 (ip), vehicle: saline with Tween-80
[12] = dose: 400.0 mg/kg/injection, schedule: Q01DX001 (ip), vehicle: saline with Tween-80
[13] = dose: 400.0 mg/kg/injection, schedule: Q04DX002 (ip), vehicle: saline with Tween-80

Measured: T/C

Cc1cc2ccccc2cc1C
inactive: dose: 25.0 mg/kg/injection, schedule: Q04DX002 (ip), vehicle: other 102 % of control | dose: 25.0 mg/kg/injection, schedule: Q04DX002 (ip), vehicle: saline with Tween-80 119 % of control | dose: 50.0 mg/kg/injection, schedule: Q04DX002 (ip), vehicle: saline with Tween-80 101 % of control | dose: 100.0 mg/kg/injection, schedule: Q04DX002 (ip), vehicle: other 94 % of control | [1] 111 % of control

O=c1oc2ccc(Cl)cc2c(OCCO)c1Cl
inactive: [2] 94 % of control | [3] 96 % of control | [4] 86 % of control

CCCCOP(OCCCC)Oc1ccccc1
inactive: dose: 50.0 mg/kg/injection, schedule: Q01DX009 (ip), vehicle: saline with Tween-80 89 % of control | [5] 89 % of control | [2] 97 % of control | [6] 100 % of control | [3] 96 % of control | [4] 103 % of control

O=C(O)CCSc1ccccc1
inactive: [7] 96 % of control | dose: 75.0 mg/kg/injection, schedule: Q01DX009 (ip), vehicle: saline with Tween-80 88 % of control | [8] 96 % of control | dose: 150.0 mg/kg/injection, schedule: Q01DX009 (ip), vehicle: saline with Tween-80 101 % of control

COC(=O)NS(=O)(=O)/C=C\n1c2ccccc2c2ccccc21
inactive: dose: 75.0 mg/kg/injection, schedule: Q01DX009 (ip), vehicle: Klucel (hydroxypropylcellulose) (HPC) 98 % of control | dose: 150.0 mg/kg/injection, schedule: Q01DX009 (ip), vehicle: Klucel (hydroxypropylcellulose) (HPC) 109 % of control

CCCC(C#N)(c1ccccc1)c1ccccc1
inactive: dose: 100.0 mg/kg/injection, schedule: Q01DX001 (ip), vehicle: Klucel (hydroxypropylcellulose) (HPC) 97 % of control | dose: 100.0 mg/kg/injection, schedule: Q01DX009 (ip), vehicle: Klucel (hydroxypropylcellulose) (HPC) 95 % of control | dose: 100.0 mg/kg/injection, schedule: Q04DX003 (ip), vehicle: Klucel (hydroxypropylcellulose) (HPC) 91 % of control | dose: 200.0 mg/kg/injection, schedule: Q01DX001 (ip), vehicle: Klucel (hydroxypropylcellulose) (HPC) 92 % of control | dose: 200.0 mg/kg/injection, schedule: Q01DX009 (ip), vehicle: Klucel (hydroxypropylcellulose) (HPC) 95 % of control | dose: 200.0 mg/kg/injection, schedule: Q04DX003 (ip), vehicle: Klucel (hydroxypropylcellulose) (HPC) 104 % of control | dose: 400.0 mg/kg/injection, schedule: Q01DX001 (ip), vehicle: Klucel (hydroxypropylcellulose) (HPC) 102 % of control | dose: 400.0 mg/kg/injection, schedule: Q04DX003 (ip), vehicle: Klucel (hydroxypropylcellulose) (HPC) 94 % of control

O=C(O)CC(NC(=O)OCc1ccccc1)c1ccccc1 (configuration not stated)
inactive: [9] 92 % of control | [5] 93 % of control and 102 % of control | [1] 110 % of control | [2] 97 % of control | [10] 90 % of control | [6] 98 % of control and 91 % of control | [11] 95 % of control | [3] 92 % of control | [12] 92 % of control | [13] 100 % of control | [4] 93 % of control

COC(=O)Nc1ccc(C(C)=O)cc1
inactive: dose: 20.0 mg/kg/injection, schedule: Q01DX009 (ip), vehicle: saline with Tween-80 95 % of control | [7] 91 % of control | dose: 80.0 mg/kg/injection, schedule: Q01DX009 (ip), vehicle: saline with Tween-80 93 % of control | dose: 160.0 mg/kg/injection, schedule: Q01DX009 (ip), vehicle: saline with Tween-80 101 % of control | dose: 320.0 mg/kg/injection, schedule: Q01DX009 (ip), vehicle: saline with Tween-80 90 % of control

NNC(=O)C1CCC1C(=O)NN (configuration not stated)
inactive: dose: 75.0 mg/kg/injection, schedule: Q01DX001 (ip), vehicle: saline 103 % of control | [8] 96 % of control | dose: 150.0 mg/kg/injection, schedule: Q01DX001 (ip), vehicle: saline 99 % of control | dose: 150.0 mg/kg/injection, schedule: Q04DX003 (ip), vehicle: saline 103 % of control | dose: 300.0 mg/kg/injection, schedule: Q01DX001 (ip), vehicle: saline 97 % of control | dose: 300.0 mg/kg/injection, schedule: Q04DX003 (ip), vehicle: saline 103 % of control

COc1ccc(C)cc1NC(=S)NC(=O)/C=C/c1ccccc1
inactive: [9] 90 % of control | [5] 93 % of control and 100 % of control | [1] 93 % of control and 94 % of control | [2] 91 % of control | [10] 91 % of control | [6] 93 % of control and 88 % of control | [11] 94 % of control and 90 % of control | [3] 93 % of control | [12] 90 % of control | dose: 400.0 mg/kg/injection, schedule: Q01DX009 (ip), vehicle: saline with Tween-80 100 % of control and 103 % of control | [13] 97 % of control and 89 % of control | [4] 91 % of control
